# Reference: US20190183908A1 (priority 2016, published 2019)
# “Also recorded” adds a separate entry of the source.
# Tests used:
# CD206+ M2 macrophages = system: CD206+ M2 macrophages; design: species or system mice; conditions: mouse, in vivo
# UV irradiated mice = system: UV irradiated mice; design: species or system C57BL/6 mice; conditions: mouse, in vivo
# [1] = system: LC3 in CD206+ macrophages; design: species or system mice; conditions: mouse, in vivo
# Arginase1 = system: Arginase1; design: species or system mice; conditions: mouse, in vivo
# UV induced apoptosis = conditions: mouse, in vivo
# iNOS [2] = system: iNOS; design: species or system mice; conditions: mouse, in vivo
# [3] = system: nitrogen mustard exposed mice; conditions: mouse, in vivo, ip; cited from earlier work
# MMP9 = system: MMP9; design: species or system mice; conditions: mouse, in vivo
# TNF-α [4] = system: TNF-α; design: species or system mice; conditions: mouse, in vivo
# M2:M1 macrophage ratio = system: M2:M1 macrophage ratio; design: species or system mice; conditions: mouse, in vivo
# [5] = system: LC3 in F4/80+ macrophages; design: species or system mice; conditions: mouse, in vivo
# Valchlor-exposed skin [6] = format: in vivo, human
# [7] = system: LC3 in CD163+ macrophages; design: species or system human; conditions: in vivo, po
# Valchlor-exposed skin [8] = conditions: human, in vivo
# iNOS [9] = system: iNOS; design: species or system human; conditions: in vivo, po
# IL-6 = system: IL-6; design: species or system human; conditions: in vivo, po
# [10] = system: UVR-irradiated skin of healthy adults; design: species or system human; conditions: in vivo
# arginase-1 = system: arginase-1; design: species or system human; conditions: in vivo
# [11] = system: UVR-irradiated skin of healthy adults; format: in vivo, human; conditions: N=4
# Valchlor-exposed skin [12] = system: Valchlor-exposed skin; design: species or system human; conditions: in vivo
# TNF-α [13] = system: TNF-α; design: species or system human; conditions: in vivo, po
# [14] = system: UVR-irradiated skin of healthy adults; design: species or system human; conditions: in vivo; remark: listed apart in the source
# COX-2 = system: COX-2; design: species or system human; conditions: in vivo, po
# TNF-α [15] = system: TNF-α; design: species or system human; conditions: in vivo, po; remark: listed apart in the source
compound,measurement,setting,value
25(OH)D,M2 macrophages (CD206+) relative to M1,CD206+ M2 macrophages,more M2 cells co-localizing with LC3; also recorded: expands the M2 compared to M1
same,"Skin inflammation, wound progression and histological architecture",UV irradiated mice; ip,"prevented excessive cutaneous damage; also recorded: delayed skin inflammation, arrested skin wound progression and accelerated wound repair; also recorded: protects from UV induced necrosis, dyskeratosis and vacuolation of the basal layer"
same,LC3+CD206+ cells in the dermis,[1],significantly increased number of cells
same,arg1 staining in CD206+ cells,Arginase1,selectively stain for arg1 in CD206+ cells
same,UV mediated apoptotic cell death (TUNEL+ cells),UV induced apoptosis,significantly diminished
same,Gene expression of iNOS (NOS2),iNOS [2],significantly suppressed; also recorded: suppresses
same,"Acute skin and systemic inflammation, tissue damage and mortality",[3],sufficient to prevent acute skin and systemic inflammation and rescue mice from extensive tissue damage and mortality
same,Gene expression of MMP9,MMP9,sustained inhibition; also recorded: significantly suppressed; also recorded: suppresses
same,Gene expression of TNF (TNF-α),TNF-α [4],sustained inhibition; also recorded: significantly suppressed; also recorded: suppresses
same,M2:M1 ratio,M2:M1 macrophage ratio,significantly altered
same,M2:M1 ratio in presence or absence of VD,M2:M1 macrophage ratio,comparable
same,Elevation of macrophage-specific autophagy (LC3 punctae) compared to UV induced autophagy,[5],5 fold
"Cn1cnc(N)c2ncnc1-2 [3-MA, 3-methyladenine]",M2 macrophages / cellular profile under blockade of autophagy,CD206+ M2 macrophages,depleted functional M2 macrophages; also recorded: recapitulates cellular profile observed with UV while quenching LC3 expression
same,UV-induced inflammation / VD mediated protection under blockade of autophagy,UV irradiated mice,exacerbated UV-induced inflammation; also recorded: reversed VD mediated protection from inflammation
same,LC3 expression in skin under inhibition of autophagy,[1],abolished LC3 expression
same,arg1 expression in CD206+ cells under inhibition of autophagy,Arginase1,diminished arg1 expression
same,MMP9 under blockade of autophagy,MMP9,increasing
same,TNF-α under blockade of autophagy,TNF-α [4],increasing
same,UV induced and VD induced autophagy,[5],inhibited
"C=C1CC[C@H](O)C/C1=C/C=C1\CCC[C@]2(C)[C@@H]([C@H](C)CCCC(C)C)CC[C@@H]12 [vitamin D3, cholecalciferol]",Reduction in skin vesication on histology,"Valchlor-exposed skin [6]; in vivo, po",50%
same,Vesication by histology,Valchlor-exposed skin [6]; n=2,0%
same,LC3 co-localized with CD163+ macrophages in human skin,[7],upregulates cells that co-localize LC and CD163; also recorded: enhanced LC3
same,"Net skin symptom Irritation, Day 0",Valchlor-exposed skin [8],1.0
same,"Net skin symptom Irritation, Day 1",Valchlor-exposed skin [8],0.5
same,"Net skin symptom Irritation, Day 2",Valchlor-exposed skin [8],1.1
same,"Net skin symptom Irritation, Day 3",Valchlor-exposed skin [8],0.8
same,"Net skin symptom Irritation, Day 4",Valchlor-exposed skin [8],0.5
same,"Net skin symptom Irritation, Day 5",Valchlor-exposed skin [8],0.1
same,"Net skin symptom Irritation, Day 6",Valchlor-exposed skin [8],−0.2
same,"Net skin symptom Irritation, Slope",Valchlor-exposed skin [8],−0.1202 ± 0.05
same,"Net skin symptom Warmth, Day 0",Valchlor-exposed skin [8],1.0
same,"Net skin symptom Warmth, Day 1",Valchlor-exposed skin [8],0.5
same,"Net skin symptom Warmth, Day 2",Valchlor-exposed skin [8],−0.2
same,"Net skin symptom Warmth, Day 3",Valchlor-exposed skin [8],0.0
same,"Net skin symptom Warmth, Day 4",Valchlor-exposed skin [8],−1.0
same,"Net skin symptom Warmth, Day 5",Valchlor-exposed skin [8],0.3
same,"Net skin symptom Warmth, Day 6",Valchlor-exposed skin [8],−0.3
same,"Net skin symptom Warmth, Slope",Valchlor-exposed skin [8],−0.1296 + 0.083
same,"Patient reported skin symptoms (warmth, irritation)",Valchlor-exposed skin [8],demonstrable reduction; also recorded: decreased
same,"Skin pain, burning sensation, and itch",Valchlor-exposed skin [8],no observable difference
same,Skin expression of iNOS compared to placebo,iNOS [9],reduced expression; also recorded: lower
same,Reduction in IL-6,IL-6,112%
same,Skin thickness after irradiation with higher doses,[10],trend for decreased skin thickness
same,Arginase-1 protein expression localized to CD163+ macrophages,arginase-1,increased expression
same,"Erythema Δa*24 hr, Mean (95% CI)",[11],2.0 (−2.1.6.1)
same,Skin thickness (arm 2 − arm 1) compared to placebo,Valchlor-exposed skin [12],trend in decreasing thickness; also recorded: reduction in skin thickness
same,Reduction in TNF-α,TNF-α [13],66%
same,"Histologic structural damage (epidermal vesiculation, edema formation)",[14],improved
same,Reduction in COX-2,COX-2,80%
same,Skin expression of TNF-α compared to placebo,TNF-α [15],reduced expression; also recorded: lower
